Assay results taken from patent publication US20030055046A1, “Novel pyrido cyclohexenyl phenyl carboxamides tocolytic oxytocin receptor antagonists” (Wyeth, priority 2001, published 2003).
Counter-ions that a name gives are not always drawn.

These compounds were tested against T1, human vasopressin V1a receptor subtype (Homo sapiens, UniProt P37288) (assay: Vasopressin binding in CHO cell membranes expressing human vasopressin V1a subtype receptors). Conditions: 100 nM, [3H]Manning ligand.
T1 construct: host or cells: CHO cells, stably transfected (pZeoSV vector for the Thibonnier cells)
From the text: Vasopressin Binding in Chinese Hamster Ovary Cell Membranes Expressing Human Vasopressin V1a Subtype Receptors
Chinese hamster ovary cells (CHO cells) stably transfected with the human vasopressin V1a subtype receptors were either obtained from Biosignal Inc., 1744 rue Williams, Montreal, Quebec, Canada or obtained from M. Thibonnier, Case Western Reserve University School of Medicine, Cleveland, Ohio.
A. Passaging and Amplification of Cells:
CHO cells transfected with the human vasopressin V1a subtype receptors obtained from M. Thibonnier (pZeoSV vector) are allowed to grow to confluency (approx. >90%) in T-150 flasks under sterile conditions, in a cell culture medium consisting of F-12 Nutrient Mixture (HAM) with L-glutamine (Gibco Cat.# 11765-054) containing 15 mM HEPES (Gibco Cat.# 15630-080), 1% antibiotic/antimycotic (add 5 mL 100×, Gibco Cat.# 15240-062 per 500 mL F-12), 250 μg/mL Zeocin (add 1.25 mL of 100 mg/mL Invitrogen R-250-01 per 500 mL F-12) and 10% Fetal Bovine Serum (Qualified, heat inactivated, Gibco Cat.# 16140-063). The medium is removed by aspiration and the cells are washed with 10 mL of Hank's Balanced Salt solution (Gibco Cat.# 14175-095). The salt solution is removed by aspiration and the cells are trypsinized with 5 mL of trypsin-EDTA (0.05% trypsin, 0.53 mM EDTA-4Na, Gibco Cat.# 25300-070) for 1 min. The trypsin is removed by aspiration and the cells dislodged by tapping. Cell Culture medium (eg, 30 mL for 1:30 split) is immediately added and mixed well to inactivate trypsin. 1 mL of detached cells is added to new culture flasks containing fresh cell culture medium (eg, into 25 mL per T-150 flask), and mixed gently. The cells are incubated at 37° C. in 5% CO2. The medium is changed at 3 to 4 days interval (or as appropriate). The cells grow to confluency (approx. >75%-95%) within 7-8 days. All steps are done under sterile conditions.
The cells are washed twice gently with Hank's Balanced Salt solution (e.g,. use 10 mL per T-150 flask). The excess is removed and the cells are bathed for 15-30 min. in an enzyme-free Cell Dissociation Buffer (e.g. use 8 mL Hank's Based, Gibco Cat.# 13150-016 per T-150 flask) until the cells are loosened. The contents are transferred to centrifuge tubes (50 mL) kept an ice bath. All subsequent steps are done at 4° C. The tubes are centrifuged at 300×g for 15 min (1380 rpm on SORVAL, Model RT6000D, using the rotor for 50 mL tubes). The supernatant is discarded and the cells suspended in homogeneizing buffer (10 mM Tris-HCl containing 0.25 M sucrose and 1 mM EDTA, pH 7.4) ensuring that the volume of the buffer is about ten times the volume of the cell pellet. The cells are pooled into a centrifuge tube (50 mL) and homogenized with Polytron at setting 6 for 10 sec. The homogenate is transferred into a Potter-Elvjehm homogenizer and homogenized with 3 strokes. The homogenate is centrifuged at 1500×g for 10 min at 4° C. (3100 rpm using SORVAL, model RT6000D, using the rotor for 50 mL tubes). The pellet is discarded. The supernatant is centrifuged at 100,000×g for 60 min. at 4° C. (Beckman L8-80M ultracentrifuge; spin at 37,500 rpm with rotor type 70 Ti for 50 mL tubes; 38,000 rpm with type […] for 15 mL tubes; or 35,800 rpm with rotor type 45Ti). The supernatant is discarded and the pellet suspended in 3 to 4 mL of Tris buffer (50 mM TRIS-HCl, pH 7.4). The protein content is estimated by the Bradford or Lowry method. The volume of the membrane suspension is adjusted with the membrane buffer (50 mM Tris-HCl containing 0.1% BSA and 0.1 mM PMSF) to give 3.0 mg/mL (or as appropriate) of protein. The membranes are aliquoted and stored at −70° C.
C. Radioligand Binding Assay: […]

T1 sequence (P37288 whole entry): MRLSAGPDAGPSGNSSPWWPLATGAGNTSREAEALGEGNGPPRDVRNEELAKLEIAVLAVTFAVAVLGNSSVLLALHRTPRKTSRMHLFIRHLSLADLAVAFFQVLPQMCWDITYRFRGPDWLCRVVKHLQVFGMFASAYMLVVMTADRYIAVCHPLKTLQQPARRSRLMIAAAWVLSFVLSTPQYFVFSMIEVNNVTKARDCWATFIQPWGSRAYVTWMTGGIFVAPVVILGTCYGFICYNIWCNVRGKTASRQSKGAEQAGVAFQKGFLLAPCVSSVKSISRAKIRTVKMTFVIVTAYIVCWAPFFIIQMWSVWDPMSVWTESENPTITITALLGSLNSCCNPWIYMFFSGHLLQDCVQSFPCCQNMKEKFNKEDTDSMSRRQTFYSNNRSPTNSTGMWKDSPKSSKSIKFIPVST

Compared with Cc1cc(C(=O)N2Cc3ccc(C(=O)NCc4cccnc4)n3Cc3ccccc32)ccc1C1=CCCCC1 [Example 6, 10-[4-(1-Cyclohex-1-en-1-yl)-3-methylbenzoyl]-N-(3-pyridinylmethyl)-10,11-dihydro-5H-pyrrolo[2,1-c][1 ,4]benzodiazepine-3-carboxamide], Cc1cc(C(=O)N2Cc3ccc(C(=O)NCc4ccncc4)n3Cc3ccccc32)ccc1C1=CCCCC1 [Example 10, 10-[4-(1-Cyclohex-1-en-1-yl)-3-methylbenzoyl]-N-(4-pyridinylmethyl)-10,11-dihydro-5H-pyrrolo[2,1-c][1,4]benzodiazepine-3-carboxamide] is higher in “V1a % inhibition @ 100 nM” value: 6% for the first, 13% for the second.

Compared with CC1=C(c2ccc(C(=O)N3Cc4ccc(C(=O)N(C)Cc5cccnc5)n4Cc4ccccc43)cc2C)CCC[C@H]1O.O=C(O)C(O)C(O)C(=O)O [Example 4, 10-[4-((3R)-3-Hydroxy-2-methyl-cyclohex-1-en-1-yl)-3-methyl-benzoyl]-10,11-dihydro-5H-pyrrolo[2,1-c][1,4]benzodiazepine-3-carboxylic acid methyl-pyridin-3-yl methyl-amide L-(+)-tartaric acid salt], CC1=C(c2ccc(C(=O)N3Cc4ccc(C(=O)N(C)Cc5cccnc5)n4Cc4ccccc43)cc2C)CCC[C@H]1O [Example 3, 10-[4-((3R)-3-Hydroxy-2-methyl-cyclohex-1-en-1-yl)-3-methyl-benzoyl]-10,11-dihydro-5H-pyrrolo[2,1-c][1,4]benzodiazepine-3-carboxylic acid methyl-pyridin-3-yl methyl-amide] is lower in “V1a % inhibition @ 100 nM” value: 61% for the first, 41% for the second.

Going from Cc1cc(C(=O)N2Cc3ccc(C(=O)N4CCN(c5ccccn5)CC4)n3Cc3ccccc32)ccc1C1=CCCCC1 [Example 9, {10-[4-(1-Cyclohex-1-en-1-yl)-3-methylbenzoyl]-10,11-dihydro-5H-pyrrolo[2,1-c][1,4]benzodiazepin-3-yl}[4-(2-pyridinyl)-1-piperazinyl]methanone] to Cc1cc(C(=O)N2Cc3ccc(C(=O)N4CCN(c5ccncc5)CC4)n3Cc3ccccc32)ccc1C1=CCCCC1 [Example 12, {10-[4-(1-Cyclohex-1-en-1-yl)-3-methylbenzoyl]-10,11-dihydro-5H-pyrrolo[2,1--c][1,4]benzodiazepin-3-yl}[4-(4-pyridinyl)-1-piperazinyl]methanone], the “V1a % inhibition @ 100 nM” value rises from 5% to 73%.

First: Cc1cc(C(=O)N2Cc3ccc(C(=O)NCCc4ccccn4)n3Cc3ccccc32)ccc1C1=CCCCC1 [Example 7, 10-[4-(1-Cyclohex-1-en-1-yl)-3-methylbenzoyl]-N-[2-(2-pyridinyl)ethyl]-10,11-pyrrolo[2,1-c][1,4]benzodiazepine-3-carboxamide]
Second: Cc1cc(C(=O)N2Cc3ccc(C(=O)NCc4ccccn4)n3Cc3ccccc32)ccc1C1=CCCCC1 [Example 5, 10-[4-(1-Cyclohex-1-en-1-yl)-3-methylbenzoyl]-N-(2-pyridinylmethyl)-10,11-dihydro-5H-pyrrolo[2,1-c][1,4]benzodiazepine-3-carboxamide]
The “V1a % inhibition @ 100 nM” value of the first is lower: 13% for the first, 18% for the second.

First: Cc1cc(C(=O)N2Cc3ccc(C(=O)N(C)Cc4cccnc4)n3Cc3ccccc32)ccc1C1=CCCCC1 [Example 11, 10-[4-(1-Cyclohex-1-en-1-yl)-3-methylbenzoyl]-N-methyl-N-(3-pyridinylmethyl)-10,11-dihydro-5H-pyrrolo[2,1-c][1,4]benzodiazepine-3-carboxamide]
Second: Cc1cc(C(=O)N2Cc3ccc(C(=O)N(C)CCc4ccncc4)n3Cc3ccccc32)ccc1C1=CCCCC1 [Example 13, 10-[4-(1-Cyclohex-1-en-1-yl)-3-methylbenzoyl]-N-methyl-N-[2-(4-pyridinyl)ethyl]-10,11-dihydro-5H-pyrrolo[2,1-c][1,4]benzodiazepine-3-carboxamide]
The “V1a % inhibition @ 100 nM” value of the first is higher: 54% for the first, 51% for the second.

For Cc1cc(C(=O)N2Cc3ccc(C(=O)N(C)CCc4ccccn4)n3Cc3ccccc32)ccc1C1=CCCCC1 [Example 8, 10-[4-(1-Cyclohex-1-en-1-yl)-3-methylbenzoyl]-N-methyl-N-[2-(2-pyridinyl)ethyl]-10,11-dihydro-5H-pyrrolo[2,1-c][1 ,4]benzodiazepine-3-carboxamide], the “V1a % inhibition @ 100 nM” value was 43%.

Same assay, conditions: [3H]Manning ligand, value in parentheses

For COc1cc(C2=CCCCC2)c(Cl)cc1C(=O)N1Cc2ccc(C(=O)N(C)Cc3cccnc3)n2Cc2ccccc21 [Example 1, 10-(5-Chloro-4-cyclohex-1-en-1-yl-2-me3thoxybenzoyl)-N-methyl-N-(pyridin-3-ylmethyl)-10,11-dihydro-5H-pyrrolo [2,1-c][1,4]benzodiazepine-3-carboxamide], the IC50 was 1.09 µM.
COc1cc(C2=CCCCC2)c(Cl)cc1C(=O)N1Cc2ccc(C(=O)N(C)Cc3cccnc3)n2Cc2ccccc21 [Example 2, 10-(5-Chloro-4-cyclohex-1-en-1-yl-2-methoxybenzoyl)-N-methyl-N-(pyridin-3-ylmethyl)-10,11-dihydro-5H-pyrrolo[2,1-c][1,4]benzodiazepine-3-carboxamide L-(+)-tartaric acid salt hemihydrate] was tested, and the IC50 was 1.32 µM.
